Experimental data taken from article PMC10343686, “Integration of Hybridization Strategies in Pyridine–Urea Scaffolds for Novel Anticancer Agents: Design, Synthesis, and Mechanistic Insights” (Molecules, 2023).
Entries after “also recorded” stand apart in the source; their conditions may differ. Like-named read-outs stand apart in the source and are kept apart here.

What was measured:
[1] = system: MCF7 cancer cell line; assay: SRB assay of antiproliferative activity, MCF7; type: cell-based; settings: for GI50: Homo sapiens, MCF7, SRB assay, 48 h, mean ± standard error (n = 3)
Description: (§1) Breast cancer cell line MCF7 and colorectal carcinoma cell line HCT116 were obtained from the National Cancer Institute (MTA Number: 2702-09). Cells were cultured in complete RPMI 1640 medium (Hyclone, Logan, UT, USA) containing 10% FBS (Hyclone, Logan, UT, USA) in an atmosphere of 5% CO 2/100% humidity at 37 °C. Each investigated compound was diluted using DMSO to make a stock solution. It was treated by mixing with cell culture medium (RPMI1640 containing 10% FBS (Hyclone, Logan, UT, USA)) so that the final concentration of the drug was 0.001, 0.01, 0.1, 1, or 10 uM. There was no compound precipitated upon treatment in the culture medium.
(§2) The SRB assay was performed following the methodology of previously published studies. In brief, the cells (100 μL medium containing 5000 HCT116 or 10,000 MCF7 cells/well) were incubated in 96-well microtiter plates. After 24 h, the drug was added (100 μL) to each well and the cultures were incubated for 48 h at 37 °C. The cells were fixed in 50% TCA (50 μL per well) for 1 h at 4 °C. The liquid was removed from the plate, which was then rinsed five times with water and allowed to dry at room temperature (RT). Washed cells were stained for 10 min at RT with 0.4% SRB (100 μL per well). After staining, the plate was washed 3 times with 1% glacial acetic acid and dried at RT. The SRB stain was then solubilized in 10 mM Tris and absorbances were read at 515 nm. The effect of the drugs was expressed in terms of the GI50 (the concentration resulting in 50% maximal inhibition of cell proliferation). […]

[2] = system: HCT116 cancer cell line; assay: SRB assay of antiproliferative activity, HCT116; type: cell-based; settings: Homo sapiens, HCT-116, 48 h, mean ± standard error (n = 3)
Description: as §1, §2

[3] = system: normal cell line HEK293; assay: SRB assay of antiproliferative activity on normal cells; type: cell-based; settings: HEK293, 48 h, Figure 3
Description: The antiproliferative activity of compounds 8a, 8h, and 8i was evaluated in a sulforhodamine B (SRB) assay using normal cell line HEK293 cells. Cells were treated for 48 h under the same conditions used for the assessment of the antiproliferative activity on the cancer cells.

[4] = system: MCF7 cancer cell line; parameters: method as in PMID 35217379; settings: cited from earlier work

Row | GI50 [1] [µM] | GI50 [2] [µM] | melting point [°C] | Compound | cell growth inhibitory effect on normal cells [3] | GI50 [4] [µM] | potency compared to the positive control drug Irinotecan ([1]; MCF7 cancer cell line, ratio of GI50 values) [fold]
1 | 1.17 ± 0.059 | 1.25 ± 0.037 | 222 to 225 | COc1n[nH]c2ccc(-c3ccnc(NC(=O)NC4CCCC4)c3)cc12 [Compound 8g, 1-Cyclopentyl-3-(4-(3-methoxy-1H-indazol-5-yl)pyridin-2-yl)urea] |  |  | 
2 | > 10 | > 10 | 229 to 232 | COc1n[nH]c2ccc(-c3ccnc(NC(=O)Nc4cccc(F)c4)c3)cc12 [Compound 8b, 1-(3-Fluorophenyl)-3-(4-(3-methoxy-1H-indazol-5-yl)pyridin-2-yl)urea] |  |  | 
3 | 1.13 ± 0.003 | 1.38 ± 0.086 | 209 to 212 | COc1n[nH]c2ccc(-c3ccnc(NC(=O)NCCc4ccc(F)cc4)c3)cc12 [Compound 8k, 1-(4-Fluorophenethyl)-3-(4-(3-methoxy-1H-indazol-5-yl)pyridin-2-yl)urea] |  |  | 
4 | 3.73 ± 0.075 | 1.22 ± 0.141 | 229 to 232 | COc1n[nH]c2ccc(-c3ccnc(NC(=O)Nc4ccc(F)cc4)c3)cc12 [Compound 8c, 1-(4-Fluorophenyl)-3-(4-(3-methoxy-1H-indazol-5-yl)pyridin-2-yl)urea] |  |  | 
5 | 4.37 ± 0.359 | > 10 | 240 to 242 | COc1ccc(NC(=O)Nc2cc(-c3ccc4[nH]nc(OC)c4c3)ccn2)cc1 [Compound 8e, 1-(4-(3-Methoxy-1H-indazol-5-yl)pyridin-2-yl)-3-(4-methoxyphenyl)urea] |  |  | 
6 | 1.89 ± 0.26 | > 10 | 230 to 233 | COc1cccc(NC(=O)Nc2cc(-c3ccc4[nH]nc(OC)c4c3)ccn2)c1 [Compound 8d, 1-(4-(3-Methoxy-1H-indazol-5-yl)pyridin-2-yl)-3-(3-methoxyphenyl)urea] |  |  | 
7 | 0.89 ± 0.209 | 0.92 ± 0.114 | 300 to 305 | COc1n[nH]c2ccc(-c3ccnc(NC(=O)Nc4ccc(F)c(Cl)c4)c3)cc12 [Compound 8f, 1-(3-Chloro-4-fluorophenyl)-3-(4-(3-methoxy-1H-indazol-5-yl)pyridin-2-yl)urea] |  |  | 
8 | 0.23 ± 0.015 | 0.33 ± 0.042 | 230 to 233 | COc1n[nH]c2ccc(-c3ccnc(NC(=O)NCc4ccccc4)c3)cc12 [Compound 8h, 1-Benzyl-3-(4-(3-methoxy-1H-indazol-5-yl)pyridin-2-yl)urea] | excellent safety profiles; also recorded: low cytotoxicity |  | 
9 | 0.75 ± 0.142 | > 10 | 208 to 211 | COc1n[nH]c2ccc(-c3ccnc(NC(=O)NCCc4ccccc4F)c3)cc12 [Compound 8j, 1-(2-Fluorophenethyl)-3-(4-(3-methoxy-1H-indazol-5-yl)pyridin-2-yl)urea] |  |  | 
10 | 0.16 ± 0.013 | 1.08 ± 0.006 | 200 to 203 | COc1n[nH]c2ccc(-c3ccnc(NC(=O)NCCc4ccccc4)c3)cc12 [Compound 8i, 1-(4-(3-Methoxy-1H-indazol-5-yl)pyridin-2-yl)-3-phenethylurea] | excellent safety profiles; also recorded: low cytotoxicity |  | 
11 | 0.06 ± 0.014 | 1.19 ± 0.035 | 218 to 221 | COc1n[nH]c2ccc(-c3ccnc(NC(=O)Nc4ccccc4)c3)cc12 [Compound 8a, 1-(4-(3-Methoxy-1H-indazol-5-yl)pyridin-2-yl)-3-phenylurea] | excellent safety profiles; also recorded: low cytotoxicity |  | 6

The next lines start with the compound.

Row | Compound | GI50 [1] [µM] | GI50 [2] [µM] | melting point [°C] | cell growth inhibitory effect on normal cells [3] | GI50 [4] [µM] | potency compared to the positive control drug Irinotecan ([1]; MCF7 cancer cell line, ratio of GI50 values) [fold]
12 | O=C(Nc1ccc(F)c(Cl)c1)Nc1cc(-c2ccc3cncnc3c2)ccn1 [Compound 4h, 1-(3-Chloro-4-fluorophenyl)-3-(4-(quinazolin-7-yl)pyridin-2-yl)urea] | > 10 | > 10 | 318 to 321 |  |  | 
13 | O=C(Nc1cccc(C(F)(F)F)c1)Nc1cc(-c2ccc3cncnc3c2)ccn1 [Compound 4f, 1-(4-(Quinazolin-7-yl)pyridin-2-yl)-3-(3-(trifluoromethyl)phenyl)urea] | > 10 | > 10 | 328 to 331 |  |  | 
14 | O=C(Nc1ccccc1)Nc1cc(-c2ccc3cncnc3c2)ccn1 [Compound 4a, 1-Phenyl-3-(4-(quinazolin-7-yl)pyridin-2-yl)urea] | > 10 | > 10 | 332 to 335 |  |  | 
15 | O=C(NCCc1ccccc1)Nc1cc(-c2ccc3cncnc3c2)ccn1 [Compound 4l, 1-Phenethyl-3-(4-(quinazolin-7-yl)pyridin-2-yl)urea] | 9 ± 0.347 | > 10 | 260 to 263 |  |  | 
16 | C=CCNC(=O)Nc1cc(-c2ccc3cncnc3c2)ccn1 [Compound 4i, 1-Allyl-3-(4-(quinazolin-7-yl)pyridin-2-yl)urea] | 3.35 ± 0.101 | > 10 | 190 to 193 |  |  | 
17 | O=C(NCc1ccccc1)Nc1cc(-c2ccc3cncnc3c2)ccn1 [Compound 4k, 1-Benzyl-3-(4-(quinazolin-7-yl)pyridin-2-yl)urea] | 3.03 ± 0.061 | > 10 | 221 to 224 |  |  | 
18 | O=C(Nc1cccc(F)c1)Nc1cc(-c2ccc3cncnc3c2)ccn1 [Compound 4b, 1-(3-Fluorophenyl)-3-(4-(quinazolin-7-yl)pyridin-2-yl)urea] | > 10 | > 10 |  |  |  | 
19 | O=C(Nc1cccc(OC(F)(F)F)c1)Nc1cc(-c2ccc3cncnc3c2)ccn1 [Compound 4g, 1-(4-(Quinazolin-7-yl)pyridin-2-yl)-3-(3-(trifluoromethoxy)phenyl)urea] | > 10 | > 10 |  |  |  | 
20 | O=C(Nc1ccc(F)cc1)Nc1cc(-c2ccc3cncnc3c2)ccn1 [Compound 4c, 1-(4-Fluorophenyl)-3-(4-(quinazolin-7-yl)pyridin-2-yl)urea] | > 10 | > 10 |  |  |  | 
21 | CNC(=O)c1cc(Oc2ccc(NC(=O)Nc3ccc(Cl)c(C(F)(F)F)c3)cc2)ccn1 [Sorafenib] |  |  |  |  | 11.2 | 
22 | O=C(NCCc1ccc(F)cc1)Nc1cc(-c2ccc3cncnc3c2)ccn1 [Compound 4n, 1-(4-Fluorophenethyl)-3-(4-(quinazolin-7-yl)pyridin-2-yl)urea] | > 10 | > 10 | 214 to 217 |  |  | 
23 | COc1ccc(NC(=O)Nc2cc(-c3ccc4cncnc4c3)ccn2)cc1 [Compound 4e, 1-(4-Methoxyphenyl)-3-(4-(quinazolin-7-yl)pyridin-2-yl)urea] | > 10 | > 10 |  |  |  | 
24 | O=C(Nc1cc(-c2ccc3cncnc3c2)ccn1)NC1CCCC1 [Compound 4j, 1-Cyclopentyl-3-(4-(quinazolin-7-yl)pyridin-2-yl)urea] | > 10 | > 10 | 223 to 226 |  |  | 
25 | O=C(NCCc1ccccc1F)Nc1cc(-c2ccc3cncnc3c2)ccn1 [Compound 4m, 1-(2-Fluorophenethyl)-3-(4-(quinazolin-7-yl)pyridin-2-yl)urea] | > 10 | > 10 | 272 to 275 |  |  | 
26 | CCc1c2c(nc3ccc(OC(=O)N4CCC(N5CCCCC5)CC4)cc13)-c1cc3c(c(=O)n1C2)COC(=O)[C@]3(O)CC [Irinotecan, reference compound] | 0.35 ± 0.069 | 0.62 ± 0.003 |  |  |  | 
27 | COc1cccc(NC(=O)Nc2cc(-c3ccc4cncnc4c3)ccn2)c1 [Compound 4d, 1-(3-Methoxyphenyl)-3-(4-(quinazolin-7-yl)pyridin-2-yl)urea] | > 10 | > 10 |  |  |  | 
